Results taken from publication PMC4259018 (MedChemComm, 2014).

How the values were obtained:
mPTPB = mPTPB (Mycobacterium tuberculosis, UniProt I6WXK4); experiment: mPTPB catalyzed para-nitrophenyl phosphate hydrolysis inhibition; assay type: biochemical; conditions: for activity at 100 μM: 100 μM compound
[1] = test system: mPTPB transfected Raw264.7 cells; assay type: cell-based; conditions: 10 μM
human PTPs = experiment: Specificity for mPTPB over panel of human PTPs; assay type: biochemical; conditions: mPTPB versus PTP1B, SHP2, SHP1, PTP-Meg2, CD45, PTPε, VHR, Laforin

Sequence of mPTPB (I6WXK4 whole entry, looked up): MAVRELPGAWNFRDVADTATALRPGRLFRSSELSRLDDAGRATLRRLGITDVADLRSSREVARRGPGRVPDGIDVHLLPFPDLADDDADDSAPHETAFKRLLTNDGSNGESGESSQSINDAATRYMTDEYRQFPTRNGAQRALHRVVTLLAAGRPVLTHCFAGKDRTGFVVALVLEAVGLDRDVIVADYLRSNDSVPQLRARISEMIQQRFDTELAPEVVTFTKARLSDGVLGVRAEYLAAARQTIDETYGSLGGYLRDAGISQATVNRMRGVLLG

O=C(O)c1cc2sc(Nc3ccccc3)nc2cc1O [11a]
fold more active than 11b (mPTPB): 3 fold | effects on Erk1/2 and Akt phosphorylation [1]: has no such effects

O=C(O)c1cc2sc(Nc3cccc(Br)c3)nc2cc1O [11h]
Ki (mPTPB): 2.2 ± 0.1 µM | fold increase in potency in comparison to 11a (mPTPB): 12 fold | mode of inhibition (mPTPB; mPTPB, against pNPP): noncompetitive inhibitor | fold improvement of salicylic acid mPTPB inhibitory activity (mPTPB; mPTPB, versus salicylic acid): 27,500 fold | Akt phosphorylation ([1]; 5 μM, dose dependent): decreased | Erk1/2 phosphorylation ([1]; 5 μM, dose dependent): increased | fold preference for mPTPB against human PTPs (human PTPs): over 20 fold

O=C(O)c1cc2[nH]c(=O)oc2cc1O [compound 6]
activity at 100 μM (mPTPB; mPTPB): did not exhibit activity

O=C1COc2cc(O)c(C(=O)O)cc2N1 [compound 7]
activity at 100 μM (mPTPB; mPTPB): did not exhibit activity

O=C(O)CN1CC(=O)Oc2cc(O)c(C(=O)O)cc21 [compound 8]
activity at 100 μM (mPTPB; mPTPB): did not exhibit activity

O=C(O)c1cc2nc(-c3ccccc3)oc2cc1O [compound 9]
IC50 (mPTPB): 20 to 30 µM

O=C(O)c1cc2[nH]c(-c3ccccc3)nc2cc1O [compound 10]
IC50 (mPTPB): 20 to 30 µM
